Experimental findings from patent publication US11040056B2, “Benzimidazoles that enhance the activity of oligonucleotides” (The University of North Carolina at Chapel Hill, priority 2018, dated 2021) are described below.

What all share (type): cell-based
One data set deals with HeLaLuc705 cells. The experiment in a line: SSO-mediated luciferase induction assay. How it is done:
FIG. 1B-1E. Effects with SSOs. FIG. 1B Structure of UNC2383. […] The cells were then rinsed and incubation continued for an additional 4 h in DMEM+10% FBS. Cells were rinsed twice in PBS and luciferase activity (RLU) and cell protein determined. The larger round symbol indicates the MM oligonucleotide. Means+/−SE. N=3. […] The cells were further incubated and then luciferase and protein determined. The total time of incubation in each case was 6 h. […] Means+/−SE. N=3.
(§1) FIG. 3. Effect and Cytotoxicity of Analogs. The effect of selected UNC2383 analogs on luciferase induction by SSO623 was measured as described in Methods and in the legend of FIG. 1B-1E. Cytotoxicity was measured using the Alamar Blue method as in FIG. 1E. MM10 is the effect of 10 uM compound in the presence of a mismatched oligonucleotide. Means and SE. N=3.
HeLaLuc705 cells are stably transfected with a firefly luciferase reporter whose coding sequence is interrupted by an abnormal intron. […] NIH-3T3-MDR cells are stably transfected with a human MDR1 cDNA coding for the P-glycoprotein (Pgp). We have described the maintenance and use of these cell lines elsewhere. (18, 20)
SSO-mediated luciferase induction assays were conducted as previously described. (18) In short, HeLaLuc705 cells in 24 well culture plates were preincubated with SSO623 followed by brief treatment with the small molecule; at intervals thereafter, luciferase activity and protein content were determined. […] (30)

The nature of data set [1]: Alamar Blue cytotoxicity assay. As to conditions: human, HeLa Luc705 cells; Alamar Blue cytotoxicity; read-out: TC50. The protocol: (§2) FIG. 1B-1E. Effects with SSOs. FIG. 1B Structure of UNC2383. FIG. 1C Compound 2383 enhances SSO effects. Cells were incubated in 24-well plates with 100 nM SSO623 or its mismatched control (MM) for 16 h in DMEM+10% FBS, rinsed and then treated with various concentrations of 2383 for 2 h. The cells were then rinsed and incubation continued for an additional 4 h in DMEM+10% FBS. Cells were rinsed twice in PBS and luciferase activity (RLU) and cell protein determined. The larger round symbol indicates the MM oligonucleotide. Means+/−SE. N=3. FIG. 1D Kinetics of 2383 action. Cells were preloaded with 100 nM SSO623 and then exposed to 2383 for various periods after which the compound was removed. The cells were further incubated and then luciferase and protein determined. The total time of incubation in each case was 6 h. FIG. 1E Cytotoxicity of 2383. HeLa Luc705 or NIH-3T3-MDR cells were exposed to 2383 as in (FIG. 1C) then incubated for 24 h in DMEM plus 10% FBS and tested using the Alamar Blue cytotoxicity assay. Means+/−SE. N=3.
as §1
(§3) SSO-mediated luciferase induction assays were conducted as previously described. (18) In short, HeLaLuc705 cells in 24 well culture plates were preincubated with SSO623 followed by brief treatment with the small molecule; at intervals thereafter, luciferase activity and protein content were determined. ASO mediated inhibition of MDR1 gene expression utilized an Alexa 488 labeled anti-P-glycoprotein antibody and flow cytometry to measure Pgp expression as described. (20) The anti-MDR1 sequence is 5′-CCATCccgacctcgcGCTCC-3′(SEQ ID NO: 5) (all phosphorothiopate with 2-O-Me residues in capitals). Cytotoxicity of 2383 was monitored using the Alamar Blue assay. (30)
Background: The colour change of resazurin is a common sign of viable cells or microbes.

A further data set has as its system HeLa Luc705 cells. The experiment in a line: Alamar Blue cytotoxicity assay. As to conditions: ratio of cytotoxicity TC50 to luciferase induction EC50. The protocol: as §2, §1, §3
Data set [2] deals with lysosomes of HeLa Luc 705 cells. The data set is described as follows: Lysotracker Red accumulation assay. As to conditions: 10 μM. The protocol: FIG. 9A-9D. Effects on lysosomes. FIG. 9A: Lysotracker uptake. Accumulation of Lysotracker Red in HeLa Luc 705 cells was measured after a 2 h exposure of cells to the indicated concentrations of various analogs. The lysosomotropic compound chloroquine was included as a positive control. Means of triplicate determinations are shown. The color-coded numbers refer to the fold increase in luciferase induction attained by the concentration of analog associated with the adjacent symbol on the graph. The numbers are taken from the data of FIG. 1C for UNC2383 and FIG. 4 for UNC4267, UNC4258, and UNC4428. FIG. 9B: LT50 vs TC50. […] Nonlinear regression was calculated using Prism software. The R^2 value for the plot is 0.91. FIG. 9C: 2383 vs chloroquine; luciferase induction. HeLa Luc705 cells were exposed to SSO623 and then treated with various concentrations of UNC2383 or chloroquine for 2 h and then tested for luciferase induction following the methods described in FIG. 1B-FIG. 1E. […]
The integrity of lysosomes was evaluated using the fluorescent probe Lysotracker Red (Thermo Fisher). […] Cells were thoroughly rinsed in PBS, lysed in 0.2% TX 100, and centrifuged briefly at 4000 rpm, and 100 uL of the supernate was distributed to black 96 well plates for analysis of fluorescence using a FLUOstar Omega 96 well microplate reader.

A word on the EC50: it is the concentration that produces a half-maximal response. As for `O=C(Nc1nc2cc(Cl)c(Cl)cc2n1CCN1CCCC1)c1cc2cc(Cl)ccc2o1` [UNC4428], the “enhancement of SSO actions” value in the data set with HeLaLuc705 cells (10 μM) is “quite strongly enhanced”. The molecule further displayed an EC50 with HeLaLuc705 cells (luciferase induction by SSO623) of 10 µM. The CC50 at 2 h in data set [1] was 50 µM. For the same molecule, the TC50/EC50 in the data set on HeLa Luc705 cells was 5. Further, the “effect on lysotracker accumulation” value in data set [2] is “little effect”.
